Assay: Comparative storage stability: total degradation products and related substances by HPLC
Type: physicochemical
Settings: for increase of degradation products and related substances relative to the starting analysis, non-formulated active substance versus stable pharmaceutical composition (solid solution): 6 days storage on 60° C.
Protocol: (§1) Comparison of the total amount of degradation products and related substances in non-formulated active substance and in the stable pharmaceutical composition according to the present invention comprising the active substance in the form of solid solution is presented by the graph 1. The pharmaceutical composition is prepared as described in example 2. The amount of degradation products and related substances is determined by HPLC method. [drawing]
as §1, with “in” for “by the”, “2.” for “1.”, “5.” for “2.”, “[drawing] [drawing]” for “[drawing]”

## COc1ccc2[n-]c([S+]([O-])Cc3ncc(C)c(OC)c3C)nc2c1.COc1ccc2[n-]c([S+]([O-])Cc3ncc(C)c(OC)c3C)nc2c1.[Mg+2] (stereo not drawn) [esomeprazole magnesium, Esomeprazole magnesium]
Composition prepared as described in example 2
  increase of degradation products and related substances relative to the starting analysis, non-formulated active substance versus stable pharmaceutical composition (solid solution): four times higher
Composition prepared as described in example 5
  increase of degradation products and related substances relative to the starting analysis, non-formulated active substance versus stable pharmaceutical composition (solid solution): > 10 times
14 days storage on 40° C., composition prepared as described in example 2
  increase of the amount of degradation products and related substances relative to the starting analysis, non-formulated active substance versus stable pharmaceutical composition (solid solution): three times higher

From patent US20060159762A1, “Stable pharmaceutical composition comprising an active substance in the form of solid solution” (priority 2004, published 2006)
